Assay results: BigSolDB 2.1

Which results are given for `CC1=NN(c2ccccc2)C(=O)C1`?
solubility (mole fraction) (in 2,4-dimethylphenol, 298.15 K): 0.0188; solubility (mole fraction) (in 2,4-dimethylphenol, 303.15 K): 0.0282; solubility (mole fraction) (in 2,4-dimethylphenol, 308.15 K): 0.0408; solubility (mole fraction) (in 2,4-dimethylphenol, 313.15 K): 0.0565; solubility (mole fraction) (in DMSO, 298.15 K): 0.0758; solubility (mole fraction) (in DMSO, 303.15 K): 0.122; solubility (mole fraction) (in DMSO, 308.15 K): 0.201; solubility (mole fraction) (in DMSO, 313.15 K): 0.298; solubility (mole fraction) (in NMP, 298.15 K): 0.0383; solubility (mole fraction) (in NMP, 303.15 K): 0.0496; solubility (mole fraction) (in NMP, 308.15 K): 0.0694; solubility (mole fraction) (in NMP, 313.15 K): 0.0861; solubility (mole fraction) (in diglyme, 298.15 K): 0.0205; solubility (mole fraction) (in diglyme, 303.15 K): 0.0269; solubility (mole fraction) (in diglyme, 308.15 K): 0.0333; solubility (mole fraction) (in diglyme, 313.15 K): 0.0416; solubility (mole fraction) (in morpholine-4-carbaldehyde, 298.15 K): 0.0111; solubility (mole fraction) (in morpholine-4-carbaldehyde, 303.15 K): 0.0146; solubility (mole fraction) (in morpholine-4-carbaldehyde, 308.15 K): 0.0176; solubility (mole fraction) (in morpholine-4-carbaldehyde, 313.15 K): 0.0217; solubility (mole fraction) (in tetraglyme, 298.15 K): 0.0463; solubility (mole fraction) (in tetraglyme, 303.15 K): 0.0863; solubility (mole fraction) (in tetraglyme, 308.15 K): 0.131; solubility (mole fraction) (in tetraglyme, 313.15 K): 0.212; solubility (mole fraction) (in triglyme, 298.15 K): 0.0153; solubility (mole fraction) (in triglyme, 303.15 K): 0.022; solubility (mole fraction) (in triglyme, 308.15 K): 0.0311; solubility (mole fraction) (in triglyme, 313.15 K): 0.0457
